From patent US11292788B2, “IL-17 and IFN-gamma inhibition for the treatment of autoimmune diseases and chronic inflammation” (Immunic AG, priority 2017, dated 2022) come the findings set out here.

Data set [1] can be described thus: Aqueous solubility in 50 mM phosphate buffer (HPLC/DAD). The class given is physicochemical. Conditions: 50 mM phosphate buffer, 23 °C, pH 7.4, aqueous buffer, kinetic from dmso stock, aqueous solubility class; read-out: aq. solub. In short, it runs like this:
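Compound at 200 μM (1% DMSO final) shaken 24 h at 23° C in aqueous phosphate buffers at pH 4.0, 6.0, 7.4 and 9.0. Undissolved material removed by centrifugation (30 min, 18000 g). Supernatant concentration quantified by HPLC-UV against a 0.1–200 μg/ml standard curve in MeCN.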

A further data set has as its system IL-17A. Briefly: Cytokine assay: IL-17A production by human PBMC stimulated with PHA. Particulars: Homo sapiens, PBMC, IC50 class, read-out: IL-17A Inhib. The class given is cell-based. The method in brief: (§1)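 Compounds were titrated semilogarithmically for IC50, or screened at 10, 1, 0.1 and 0.01 μM, on healthy-donor PBMC stimulated for 48 h with 2 μg/ml PHA at 1×10^5 cells/well. Cytokines in culture supernatants were then quantified by ELISA or Luminex bead assay.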

A short description of data set [2]: Microsomal stability: incubation with human liver microsomes, residual parent compound by HPLC-MS/MS. The class given is in vitro ADME. Particulars: pH 7.4; human liver microsomes, 1 μM compound, 0.5 mg/ml HLM, 37° C., up to 60 min; read-out: t1/2 hLM. In short, it runs like this: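 Compound at 1 μM final with 0.5 mg/ml pooled human liver microsomes and NADPH regenerating system, 0.1 M potassium phosphate pH 7.4, 0.4% DMSO, 37° C, sampled up to 60 min. Residual parent measured by HPLC-MS/MS; half-life and clearance from slope of remaining % of T0.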

Another data set has as its system IL-17F. The data set can be described thus: Cytokine assay: IL-17F production by human PBMC stimulated with PHA. The class given is cell-based. Conditions: Homo sapiens, PBMC, IC50 class, read-out: IL-17F Inhib. The method in brief:
as §1

The next data set relates to INF-γ. Briefly: Cytokine assay: INF-γ production by human PBMC stimulated with PHA. Type of data set: cell-based. Conditions: Homo sapiens, PBMC, IC50 class, read-out: IFN-gamma Inhib. In short, it runs like this:
as §1

Molecules are shown by their SMILES.

For `C[C@@H](O)Cn1ncc(-c2onc(-c3cccc(C(=O)N4CCCC4)c3Cl)c2-c2ccncn2)c1C(F)(F)F` [Example 160, (R)-(2-chloro-3-(5-(1-(2-hydroxypropyl)-5-(trifluoromethyl)-1H-pyrazol-4-yl)-4-(pyrimidin-4-yl)isoxazol-3-yl)phenyl)(pyrrolidin-1-yl)methanone], the solubility at 24 h in data set [1] is above 10 µM. Also, the IC50 in the data set on IL-17A, in the data set on IL-17F and in the data set on INF-γ was below 50 nM throughout. In addition, the half-life at 1 μM in data set [2] is 10 to 40 min.
